Source: US9359371B2, “Bicyclic substituted pyrimidine compounds” (Xuanzhu Pharma Co., Ltd., priority 2012, dated 2016)
pIC50: −log10 of the molar value. Where two headings read alike, the source gives them in different places.

Key:
PDE-5A enzyme = PDE-5A enzyme (Homo sapiens (Human), UniProt O76074); assay: Caliper Mobility-Shift PDE-5A Assay; format: biochemical; settings: Table 1; Avanafil value is the control
Description: Experiment 1: Measurement of Enzymatic Activity In Vitro
PDE-5A enzyme: humanized PDE-5 enzyme, SignalChem, Cat#93-31G-20.
Method: enzyme assay, Caliper Mobility-Shift PDE-5A Assay:
The test compound was accurately weighed, dissolved in DMSO, mixed thoroughly and formulated into 10 mM.
(§1) The maximum final concentration of the compound was 10 μM. The plate was incubated at 30° C. for 1 h, and 20 μL of 70 μM EDTA was then added to stop the reaction. 26 μL of solution of each well was transferred to a 384-well plate. The conversion was read on a EZ reader II. The inhibition rate was calculated by the formula below, and used to calculate IC50 by Prism 5.0 Inhibition rate=[Conversion (ZPE)−Conversion (sample)]×100/[Conversion (ZPE)−Conversion (HPE)]
Note: HPE: control without enzyme; ZPE: control without a test compound

PDE-11 = PDE-11 (Homo sapiens (Human), UniProt Q9HCR9); assay: Caliper Mobility-Shift PDE-11 Assay; format: biochemical; settings: Table 4; maximum final concentration 10 μM
Chain of PDE-11 (Q9HCR9 whole entry): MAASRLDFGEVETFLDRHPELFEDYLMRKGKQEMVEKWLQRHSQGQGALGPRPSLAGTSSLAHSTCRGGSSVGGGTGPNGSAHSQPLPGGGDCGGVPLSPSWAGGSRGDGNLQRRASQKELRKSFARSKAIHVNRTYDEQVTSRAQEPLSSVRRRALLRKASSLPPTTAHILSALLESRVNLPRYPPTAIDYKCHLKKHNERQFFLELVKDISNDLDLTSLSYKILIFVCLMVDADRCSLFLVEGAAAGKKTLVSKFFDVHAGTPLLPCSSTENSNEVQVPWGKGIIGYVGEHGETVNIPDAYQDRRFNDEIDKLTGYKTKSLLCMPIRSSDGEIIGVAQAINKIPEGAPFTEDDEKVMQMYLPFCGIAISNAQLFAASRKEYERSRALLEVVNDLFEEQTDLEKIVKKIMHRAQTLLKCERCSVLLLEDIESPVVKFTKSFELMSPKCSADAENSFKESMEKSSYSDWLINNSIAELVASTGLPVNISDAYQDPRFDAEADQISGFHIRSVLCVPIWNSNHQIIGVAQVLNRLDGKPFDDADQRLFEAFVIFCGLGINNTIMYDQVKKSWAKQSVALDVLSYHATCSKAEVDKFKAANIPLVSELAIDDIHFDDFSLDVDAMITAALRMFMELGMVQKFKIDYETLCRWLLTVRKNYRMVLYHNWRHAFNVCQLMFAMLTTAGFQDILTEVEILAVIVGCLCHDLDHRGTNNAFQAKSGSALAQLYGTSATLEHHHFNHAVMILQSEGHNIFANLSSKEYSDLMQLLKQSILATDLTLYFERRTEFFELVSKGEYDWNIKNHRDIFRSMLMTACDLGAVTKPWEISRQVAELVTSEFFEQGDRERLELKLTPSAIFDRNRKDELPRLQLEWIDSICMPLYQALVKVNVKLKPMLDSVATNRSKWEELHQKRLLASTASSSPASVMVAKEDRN
Description: Experiment 4: Measurement of Pharmacological Activity on PDE-11 Enzyme In Vitro
Method: enzyme assay, Caliper Mobility-Shift PDE-11 Assay
The test compound was accurately weighed, dissolved in DMSO, mixed thoroughly and formulated into 10 mM. The above stock solution was diluted to a concentration of 0.5 mM with DMSO, and then was gradiently diluted by a dilution factor of 3.162, resulting in 11 concentrations in total.
as §1, with “To a 96-well plate, 20 μL of 10 μM FL-cGMP as the substrate was added; then 1 μL solution of the compound in DMSO or DMSO solution without compound was added; and then 29 μL of 0.28 ng/μL PDE-11 enzyme buffer (100 mM Hepes pH 7.5, 5 mM MgCl2, 0.002% Brij-35) was added. The maximum” for “The maximum”, “II. The Inhibition rate was” for “II. The inhibition rate was”
Note: HPE: control without enzyme; ZPE: control without compound

[1] = Pharmacokinetics (PK) in SD rats; format: in vivo; settings: rat; for bioavailability: read-out: F % (absolute bioavailability)
Description: Experiment 9: Assay of Pharmacokinetics (PK) of the Compounds of the Present Invention in SD Rats
Compound 1-54 of the present invention were prepared by the methods described in Example 1 to Example 54 of the present invention.
The control drug Avanafil, of which the structure was stated above, was purchased commercially.
Collection of the rat's blood: The animal was fixed. The tail was warmed with a water bath 10 min before the collection time. About 200 μL of whole blood was collected from the tail vein. The collected blood was collected into anticoagulant tubes containing heparin sodium. The blood samples were centrifuged at 4° C. by 8000 rpm for 6 min to give the plasma samples, which should be prepared within 30 min after the collection of blood. The plasma samples were stored in a freezer of −80° C. until test.
The result output by Analyst 1.5.1 of AB Company was used as the concentration of the tested sample (plasma sample). The mean value, standard deviation, variable coefficient and the like were calculated by Microsoft Excel (except for the result directly output by Analyst 1.5.1). Parameters of PK were calculated by Pharsight Phoenix 6.2 software. Formula for calculating oral bioavailability: F %=AUCinf−po*Doseiv/AUCinf−iv*Dosepo.

[2] = molecular target: PDE-5 enzyme (human blood platelets) (Homo sapiens (Human), UniProt O76074); assay: PDE-5 enzyme assay, [3H]cGMP; format: biochemical; settings: Table 2; human blood platelet enzyme; read-out: IC50 on PDE-5
[3] = SD, plasma, po, intragastric administration, 1 mg/kg
[4] = SD, plasma, intravenous injection, 1 mg/kg
[5] = SD, plasma, po, intragastric administration, 2 mg/kg

Structure (SMILES) | pIC50 (PDE-5A enzyme) | pIC50 (PDE-11) | other results
COc1ccc(CNc2nc(N3CC4CC4C3)ncc2C(=O)NC2CCCCCC2)cc1Cl (stereo not shown) [Compound 9, 2-(3-azabicyclo[3.1.0]hexan-3-yl)-4-((3-chloro-4-methoxybenzyl)amino)-N-cycloheptanylpyrimidine-5-formamide] | 7.63 | < 5.00 | –
COc1ccc(CNc2nc(N3CC4CC4C3)ncc2C(=O)N[C@H]2CCCCNC2=O)cc1Cl (stereo partly shown) [Compound 8, 2-(3-azabicyclo[3.1.0]hexan-3-yl)-4-((3-chloro-4-methoxybenzyl)amino)-N-((s)-caprolactam-3-yl)pyrimidine-5-formamide] | 7.88 | < 5.00 | –
COc1ccc(CNc2nc(N3CCC4(CC4)C3)ncc2C(=O)NCC2CCC(O)CC2)cc1Cl (stereo not shown) [Compound 47, 4-((3-chloro-4-methoxybenzyl)amino)-N-(4-hydroxycyclohexyl)methyl-2-(5-azaspiro[2.4]heptan-5-yl)pyrimidine-5-formamide] | – | < 5.00 | –
COc1ccc(CNc2nc(N3CCC4(CCN(C)C4)C3)ncc2C(=O)NCc2ncccn2)cc1Cl (stereo not shown) [Compound 18, 4-((3-chloro-4-methoxybenzyl)amino)-2-(7-methyl-2,7-diazaspiro[4.4]nonan-2-yl)-N-(pyrimidin-2-ylmethyl)pyrimidine-5-formamide] | – | < 5.00 | –
COc1ccc(CNc2nc(N3CC4CC4C3)ncc2C(=O)NCC2CCNCC2)cc1Cl (stereo not shown) [Compound 7, 2-(3-azabicyclo[3.1.0]hexan-3-yl)-4-((3-chloro-4-methoxybenzyl)amino)-N-(piperdin-4-ylmethyl)pyrimidine-5-formamide] | – | < 5.00 | –
COc1ccc(CNc2nc(N3CC4CC4C3)ncc2C(=O)NCc2cnc(C)cn2)cc1Cl (stereo not shown) [Compound 4, 2-(3-azabicyclo[3.1.0]hexan-3-yl)-4-((3-chloro-4-methoxybenzyl)amino)-N-((5-methylpyrazine-2-yl)methyl)pyrimidine-5-formamide] | 8.33 | < 5.00 | –
COc1ccc(CNc2nc(N3CCC4(CCC4)CC3)ncc2C(=O)NCc2ncccn2)cc1Cl [Compound 14, 4-((3-chloro-4-methoxybenzyl)amino)-N-(pyrimidin-2-ylmethyl)-2-(7-azaspiro[3.5]nonan-7-yl)pyrimidine-5-formamide] | – | < 5.00 | AUC(0-inf) [1, 3]: 36 ng·h/mL; Cmax [1, 3]: 5.2 ng/mL; half-life [1, 3]: 2.85 h; bioavailability [1, 3]: 15%; AUC(0-inf) [1, 4]: 237 ng·h/mL; half-life [1, 4]: 1.47 h; Cl_obs ([1]; intravenous injection, 1 mg/kg): 71 mL/min/kg; Vss_obs ([1]; intravenous injection, 1 mg/kg): 8.73 L/kg
COc1ccc(CNc2nc(N3CC4CC4C3)ncc2C(=O)NCCN2CCOCC2)cc1Cl (stereo not shown) [Compound 6, 2-(3-azabicyclo[3.1.0]hexan-3-yl)-4-((3-chloro-4-methoxybenzyl)amino)-N-(2-morpholinylethyl)pyrimidine-5-formamide] | 8.37 | < 5.00 | –
COc1ccc(CNc2nc(N3CCC4(CC4)C3)ncc2C(=O)NCCN2CCNCC2)cc1Cl [Compound 42, 4-((3-chloro-4-methoxybenzyl)amino)-N-(2-(piperazin-1-yl)ethyl)-2-(5-azaspiro[2.4]heptan-5-yl)pyrimidine-5-formamide] | – | < 5.00 | –
COc1ccc(CNc2nc(N3CC4CC4C3)ncc2C(=O)NCc2ncccn2)cc1Cl (stereo not shown) [Compound 1, 2-(3-azabicyclo[3.1.0]hexan-3-yl)-4-((3-chloro-4-methoxybenzyl)amino)-N-(pyrimidin-2-ylmethyl)pyrimidine-5-formamide] | 8.22 | < 5.00 | pIC50 [2]: 8.22
COc1ccc(CNc2nc(N3CCC4(CC4)C3)ncc2C(=O)NCc2ccccn2)cc1Cl [Compound 40, 4-((3-chloro-4-methoxybenzyl)amino)-N-(pyridin-2-ylmethyl)-2-(5-azaspiro[2.4]heptan-5-yl)pyrimidine-5-formamide] | 7.93 | – | AUC(0-inf) [1, 5]: 57 ng·h/mL; Cmax [1, 5]: 13.9 ng/mL; Tmax [1, 5]: 0.5 h; half-life [1, 5]: 3.58 h; bioavailability [1, 5]: 9.5%; AUC(0-inf) [1, 4]: 205 ng·h/mL; half-life [1, 4]: 2.73 h; Cl_obs ([1]; intravenous injection, 1 mg/kg): 81.3 mL/min/kg; Vss_obs ([1]; intravenous injection, 1 mg/kg): 16.40 L/kg
COc1ccc(CNc2nc(N3CCC4(CC4)C3)ncc2C(=O)N[C@H]2CC[C@H](N)CC2)cc1Cl [Compound 44, N-(trans-4-aminocyclohexyl)-4-(3-chloro-4-methoxybenzylamino)-2-(5-azaspiro[2.4]heptan-5-yl)pyrimidine-5-formamide] | – | < 5.00 | –
COc1ccc(CNc2nc(N3CC4CC4C3)ncc2C(=O)NCc2ccc(F)cc2)cc1Cl (stereo not shown) [Compound 5, 2-(3-azabicyclo[3.1.0]hexan-3-yl)-4-((3-chloro-4-methoxybenzyl)amino)-N-(4-fluorobenzyl)pyrimidine-5-formamide] | 7.76 | < 5.00 | –
